Patent US20040224987A1, “Crystalline form C of omeprazole sodium and the related process of its preparation, a crystalline form D of omeprazole sodium and the related process of its preparation, and a process for preparation of crystalline form a of omeprazole sodium” (DR. REDDY'S LABORATORIES LIMITED, priority 2003, published 2004)
Where two headings read alike, the source gives them in different places.

How the values were obtained:
[1] = cited from earlier work; for physical stability: forms disclosed in WO 99/00380
[2] = hygroscopicity of crystalline forms of omeprazole sodium; type: physicochemical; details: forms obtained by the processes of the invention
[3] = Form-A prepared according to Example 3 of WO99/00380, dried substance with one strongly bound water molecule, normal conditions; cited from earlier work
[4] = stability of crystalline forms of omeprazole sodium

| SMILES | hygroscopicity [2] | physical stability [1] | also measured |
| --- | --- | --- | --- |
| COc1ccc2[n-]c([S+]([O-])Cc3ncc(C)c(OC)c3C)nc2c1.[Na+] (stereo not drawn) [Form-X, omeprazole sodium] |  | physically unstable |  |
| COc1ccc2[n-]c([S+]([O-])Cc3ncc(C)c(OC)c3C)nc2c1.[Na+] (stereo not drawn) [Form-B, omeprazole sodium] |  | physically stable |  |

More lines, main results first:

| hygroscopicity [2] | SMILES | physical stability [1] | also measured |
| --- | --- | --- | --- |
| less hygroscopic than Form A | COc1ccc2[n-]c([S+]([O-])Cc3ncc(C)c(OC)c3C)nc2c1.[Na+] (stereo not drawn) [Form C, omeprazole sodium] |  |  |
| non-hygroscopic | COc1ccc2[n-]c([S+]([O-])Cc3ncc(C)c(OC)c3C)nc2c1.[Na+] (stereo not drawn) [Form D, omeprazole sodium] |  |  |
| non-hydroscopic | COc1ccc2[n-]c([S+]([O-])Cc3ncc(C)c(OC)c3C)nc2c1.[Na+] (stereo not drawn) [Form-A, omeprazole sodium] |  | thermodynamic stability ([1]; Form-A produced according to Example 3 of WO 99/00380): thermodynamically unstable; hygroscopicity [3]: very hygroscopic; thermodynamic stability ([4]; Form-A obtained by the process of the invention, compared with prior art processes): thermodynamically more stable; stability (kind not specified) ([4]; forms obtained by the processes of the invention): stable |
